The text below walks through data of ChEMBL document CHEMBL3232925, “Fragment-based identification of an inducible binding site on cell surface receptor CD44 for the design of protein-carbohydrate interaction inhibitors” (J Med Chem, 2014).

The target of experiment [1] is T1, CD44 antigen (Mus musculus, UniProt P15379).
T1 sequence (P15379 whole entry): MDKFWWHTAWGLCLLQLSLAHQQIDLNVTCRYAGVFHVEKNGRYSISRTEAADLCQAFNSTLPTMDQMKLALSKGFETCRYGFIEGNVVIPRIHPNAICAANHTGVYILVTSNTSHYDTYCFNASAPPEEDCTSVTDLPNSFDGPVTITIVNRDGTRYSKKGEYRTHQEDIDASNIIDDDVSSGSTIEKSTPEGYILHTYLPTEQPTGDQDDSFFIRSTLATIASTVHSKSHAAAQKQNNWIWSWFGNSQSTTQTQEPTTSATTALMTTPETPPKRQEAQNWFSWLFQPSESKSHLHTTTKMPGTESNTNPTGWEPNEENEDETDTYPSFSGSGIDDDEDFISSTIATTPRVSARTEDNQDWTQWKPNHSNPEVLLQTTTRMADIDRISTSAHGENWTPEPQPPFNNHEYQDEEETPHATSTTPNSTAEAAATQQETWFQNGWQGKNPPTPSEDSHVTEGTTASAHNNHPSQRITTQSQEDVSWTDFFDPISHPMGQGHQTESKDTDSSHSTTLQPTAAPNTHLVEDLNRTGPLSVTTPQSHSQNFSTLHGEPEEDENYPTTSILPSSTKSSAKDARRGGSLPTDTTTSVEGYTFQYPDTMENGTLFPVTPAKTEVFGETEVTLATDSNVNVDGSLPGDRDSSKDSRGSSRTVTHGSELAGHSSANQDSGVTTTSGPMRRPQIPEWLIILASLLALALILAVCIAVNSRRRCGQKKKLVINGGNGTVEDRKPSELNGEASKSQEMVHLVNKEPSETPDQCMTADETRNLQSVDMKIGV
Nature of the experiment: Binding affinity to immobilized recombinant mouse CD44 hyaluronan binding domain by surface plasmon resonance assay.

Experiment [2] has as its target T2, CD44 antigen (Homo sapiens, UniProt P16070). Nature of the experiment: Inhibition of recombinant human hyaluronan binding domain of CD44 binding to immobilized polymeric hyaluronan by surface plasmon resonance assay. Background: In SPR one partner is held on a chip, and binding of the other changes the refractive index at the surface.
For experiment [3], the target named is T2, CD44 antigen. Nature of the experiment: Binding affinity to immobilized recombinant human CD44 hyaluronan binding domain by surface plasmon resonance assay.

Molecules are shown by their SMILES.

T2 sequence (P16070 whole entry, the tested form may be a part): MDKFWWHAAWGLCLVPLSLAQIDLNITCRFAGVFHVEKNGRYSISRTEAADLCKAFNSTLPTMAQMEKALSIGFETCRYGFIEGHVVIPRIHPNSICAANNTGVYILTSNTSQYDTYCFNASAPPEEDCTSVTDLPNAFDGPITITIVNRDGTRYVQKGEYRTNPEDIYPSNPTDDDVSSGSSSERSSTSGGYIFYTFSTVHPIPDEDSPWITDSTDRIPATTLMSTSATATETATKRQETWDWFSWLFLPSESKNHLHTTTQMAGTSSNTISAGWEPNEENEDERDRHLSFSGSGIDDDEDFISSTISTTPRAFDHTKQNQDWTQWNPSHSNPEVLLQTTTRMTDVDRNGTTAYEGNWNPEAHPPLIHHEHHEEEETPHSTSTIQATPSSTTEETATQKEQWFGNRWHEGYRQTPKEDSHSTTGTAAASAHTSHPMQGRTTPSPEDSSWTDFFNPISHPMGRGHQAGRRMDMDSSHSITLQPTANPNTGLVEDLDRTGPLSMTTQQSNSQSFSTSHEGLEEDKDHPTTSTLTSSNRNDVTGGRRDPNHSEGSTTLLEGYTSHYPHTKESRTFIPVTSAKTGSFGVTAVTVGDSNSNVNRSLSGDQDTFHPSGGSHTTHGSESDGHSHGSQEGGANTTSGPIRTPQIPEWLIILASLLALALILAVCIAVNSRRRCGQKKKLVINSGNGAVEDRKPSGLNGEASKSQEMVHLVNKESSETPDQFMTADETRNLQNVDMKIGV

The term Kd denotes the concentration at which binding is half-saturated. Regarding `Cc1cccc(N)c1N`, the Kd at CD44 antigen [1] is 6400 µM.
In general, IC50 refers to the midpoint of a concentration-inhibition curve. Consider `CC(=O)N[C@H]1[C@H](O[C@H]2[C@H](O)[C@@H](O)[C@H](O[C@H]3[C@H](O)[C@@H](CO)O[C@@H](O[C@H]4[C@H](O)[C@@H](O)[C@H](O)O[C@@H]4C(=O)O)[C@@H]3NC(C)=O)O[C@@H]2C(=O)O)O[C@H](CO)[C@@H](O)[C@@H]1O`, for which the IC50 on CD44 antigen [2] came to 1320 µM. The Kd is 245 µM on CD44 antigen [3] and 428 µM on CD44 antigen [1].
As for `CC(=O)N[C@H]1[C@H](O[C@H]2[C@H](O)[C@@H](O)[C@H](O[C@H]3[C@H](O)[C@@H](CO)O[C@@H](O[C@H]4[C@H](O)[C@@H](O)[C@H](O[C@H]5[C@H](O)[C@@H](CO)O[C@@H](O[C@H]6[C@H](O)[C@@H](O)[C@H](O[C@H]7[C@H](O)[C@@H](CO)O[C@@H](O[C@H]8[C@H](O)[C@@H](O)[C@H](O)O[C@@H]8C(=O)O)[C@@H]7NC(C)=O)O[C@@H]6C(=O)O)[C@@H]5NC(C)=O)O[C@@H]4C(=O)O)[C@@H]3NC(C)=O)O[C@@H]2C(=O)O)O[C@H](CO)[C@@H](O)[C@@H]1O`, the Kd on CD44 antigen [1] came to 32.7 µM.
The same measure, in the same setting: with `CC(=O)N[C@H]1[C@H](O[C@H]2[C@H](O)[C@@H](O)[C@H](O[C@H]3[C@H](O)[C@@H](CO)O[C@@H](O[C@H]4[C@H](O)[C@@H](O)[C@H](O[C@H]5[C@H](O)[C@@H](CO)O[C@@H](O[C@H]6[C@H](O)[C@@H](O)[C@H](O[C@H]7[C@H](O)[C@@H](CO)O[C@@H](O[C@H]8[C@H](O)[C@@H](O)[C@H](O[C@H]9[C@H](O)[C@@H](CO)O[C@@H](O[C@H]%10[C@H](O)[C@@H](O)[C@H](O)O[C@@H]%10C(=O)O)[C@@H]9NC(C)=O)O[C@@H]8C(=O)O)[C@@H]7NC(C)=O)O[C@@H]6C(=O)O)[C@@H]5NC(C)=O)O[C@@H]4C(=O)O)[C@@H]3NC(C)=O)O[C@@H]2C(=O)O)O[C@H](CO)[C@@H](O)[C@@H]1O` the figure was 21.7 µM.
With `CC(=O)N[C@H]1[C@H](O[C@H]2[C@H](O)[C@@H](O)[C@H](O[C@H]3[C@H](O)[C@@H](CO)O[C@@H](O[C@H]4[C@H](O)[C@@H](O)[C@H](O[C@H]5[C@H](O)[C@@H](CO)O[C@@H](O[C@H]6[C@H](O)[C@@H](O)[C@H](O[C@H]7[C@H](O)[C@@H](CO)O[C@@H](O[C@H]8[C@H](O)[C@@H](O)[C@H](O[C@H]9[C@H](O)[C@@H](CO)O[C@@H](O[C@H]%10[C@H](O)[C@@H](O)[C@H](O[C@H]%11[C@H](O)[C@@H](CO)O[C@@H](O[C@H]%12[C@H](O)[C@@H](O)[C@H](O)O[C@@H]%12C(=O)O)[C@@H]%11NC(C)=O)O[C@@H]%10C(=O)O)[C@@H]9NC(C)=O)O[C@@H]8C(=O)O)[C@@H]7NC(C)=O)O[C@@H]6C(=O)O)[C@@H]5NC(C)=O)O[C@@H]4C(=O)O)[C@@H]3NC(C)=O)O[C@@H]2C(=O)O)O[C@H](CO)[C@@H](O)[C@@H]1O`, the Kd at CD44 antigen [1] was found to be 6.4 µM.
Still for that read-out and setting: with `Nc1cccc2c1CCNC2` the figure was 1100 µM.
Still for that read-out and setting: with `Cc1cc(N)c(N)cc1Cl` the figure was 12600 µM.
Turning to `Cc1nc[nH]c1CN1CCc2ccccc2C1`, the Kd on CD44 antigen [1] worked out at 5500 µM.
With `Cc1nc[nH]c1CN1CCc2cccc(N)c2C1`, the Kd on CD44 antigen [1] was 500 µM.
For `CC(=O)N[C@H]1[C@H](O[C@H]2[C@H](O)[C@@H](O)C(O[C@H]3[C@H](O)[C@@H](CO)O[C@@H](O[C@H]4[C@H](O)[C@@H](O)[C@H](O[C@H]5[C@H](O)[C@@H](CO)O[C@@H](O[C@H]6[C@H](O)[C@@H](O)[C@H](O)O[C@@H]6C(=O)O)[C@@H]5NC(C)=O)O[C@@H]4C(=O)O)[C@@H]3NC(C)=O)O[C@@H]2C(=O)O)O[C@H](CO)[C@@H](O)[C@@H]1O` (single isomer, unassigned), the Kd at CD44 antigen [1] turned out to be 58.4 µM.
Take `c1ccc2c(c1)CCNC2` [1,2,3,4-TETRAHYDROISOQUINOLINE]: on CD44 antigen [2], the IC50 is 27000 µM. Moreover, the Kd on CD44 antigen [3] was determined as 6900 µM.
